Molecules are shown by their SMILES.

SI, EC50 and CC50 data for six compounds are collected here from ChEMBL document CHEMBL1129700, “Utilization of wieland furoxan synthesis for preparation of 4-aryl-1,2,5-oxadiazole-3-yl carbamate derivatives having potent anti-HIV activity” (Bioorg Med Chem Lett, 1996).

The nature of test [1]: Selectivity index based on the ratio of CC50 to EC50. Format: functional.
In test [2] the test system is MT4. Put plainly: Tested for 50% effective concentration based on the inhibition of HIV-I induced cytopathic effect in MT-4 cells. The following applies: Homo sapiens. It counts as functional, cell-based.
In test [3] the test system is MT4. Description: Tested for 50% cytotoxic concentration based on the reduction of viability in mock-infected MT-4 cells. Format: functional. The note with it: Homo sapiens.

For `CCCN(C)C(=O)Oc1no[n+]([O-])c1-c1ccccc1`, the SI in test [1] worked out at 1. In the test on MT4 [2], this compound yielded an EC50 of 20 µM. The compound also came in with a CC50 in the test with MT4 [3] of 25 µM.

Regarding `CCCN(C)C(=O)Oc1nsnc1-c1c(Cl)cccc1Cl`, in test [1], the SI turned out to be 10000.

Regarding `CCCN(C)C(=O)Oc1nonc1-c1ccccc1`, the SI in test [1] came to 6.5. In the test on MT4 [2], a half-maximal response (EC50) required 2 µM. In the test with MT4 [3], this compound had a CC50 of 13 µM.

Take `Cc1cn([C@H]2C[C@H](N=[N+]=[N-])[C@@H](CO)O2)c(=O)[nH]c1=O` [ZIDOVUDINE]: the SI in test [1] was found to be 800. This compound displayed an EC50 in the test with MT4 [2] of 0.004 µM. For the same compound, in the test with MT4 [3], the CC50 was determined as 3.2 µM.

As to `CN(C)C(=O)Oc1nsnc1-c1ccccc1`, the SI in test [1] was determined as 8. The compound also showed an EC50 in the test with MT4 [2] of 5.6 µM. Further, the midpoint of cytotoxicity in the test on MT4 [3], the CC50, lay at 46.8 µM.

As to `CCCN(C)C(=O)Oc1no[n+]([O-])c1-c1c(Cl)cccc1Cl`, the SI in test [1] is 72. Further, the EC50 with MT4 [2] is 0.12 µM. In addition, the CC50 with MT4 [3] came to 8.6 µM.
